Reference: patent US20240383913A1, “THIOPHENE RING COMPOUND, PREPARATION METHOD THEREFOR AND APPLICATION THEREOF” (CENTER FOR EXCELLENCE IN MOLECULAR CELL SCIENCE, CHINESE …, priority 2021, published 2024)

What was measured:
5-HT1A receptor = 5-HT1A receptor (Homo sapiens (Human), UniProt P08908); test: 5-HT1A receptor Gαi1 BRET (G protein trimer dissociation); type: cell-based; settings: 5-HT1A receptor, G protein pathway;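 also: cells transiently co-expressing 5-HT1A receptor, luciferase-tagged Gαi1, Gβ3 and GFP-tagged Gγ9, seeded in 96-well plates for BRET measurement of G protein signaling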
Description: The affinity of the compounds of the present disclosure for the 5-HTIA receptors was determined by the method of radioligand competition experiment. In the first step, a cell membrane component containing specific 5-HTIA receptor was prepared. A 10 cm culture dish was used for transfection with 10 ng of the 5-HTIA receptor and 40 μL of PEI. After 48 hours, the 10 cm culture dish was taken out from the cell incubator and the cultured cells had expressed the 5-HTIA receptor. A vacuum pump was used to suck off the culture medium, 3 mL of lysis buffer was added to each culture dish, and the cells were placed in a 4° C. cold room for 10 minutes. After the cells were detached, the cells were transferred to a 15 mL centrifuge tube and centrifuged at 1500 rpm for 5 minutes at 4° C., and the supernatant was discarded. The cell pellet was transferred to a tissue homogenizer, and 3 mL of lysis buffer was added and fully ground until the cells were broken. Then, cell suspension was equally aliquoted into several EP tubes, centrifuged at 12000 rpm for 5 minutes at 4° C., and the supernatant was discarded. The precipitate was the cell membrane component containing the 5-HT1A receptor. […] First, a standard binding buffer was added to the cell membrane component containing the 5-HT1A receptor, and the cell membrane was disrupted and resuspended with an electric tissue homogenizer. 30 μL of membrane protein suspension was added to each well of a 96-well plate. Then, 30 μL of different drugs were added to the 96-well plate sequentially from bottom to top to ensure that the final drug concentrations were 10^−5 M, 10^−6 M, 10^−7 M, 10^−8 M, 10^−9 M, and 0 M, with two replicates per treatment. Next, 30 μL of [3H]-LSD was added to each well of the 96-well plate. The plate was incubated for 2 hours at room temperature in the dark. Detection was conducted. The machine readout value reflected the amount of [3H]-LSD bound on the membrane, and after further data processing, the affinity Ki values of different compounds for the 5-HTIA receptor were obtained. To examine the downstream G protein signaling pathway mediated by 5-HTIA receptors, on the first day, a 6 cm culture dish was used for transfection with 1 μg of 5-HTIA receptors, 1 μg of Gαi1 containing C-terminal seaweed luciferase (Gαi1-Rluc), 1 μg of Gβ3, 1 μg of Gγ9 containing C-terminal green fluorescent protein (Gγ9-GFP), and 16 μL of PEI. The next day, the confluent cells of a 6 cm culture dish were digested and reseeded into a 96-well plate with 100 μL of culture medium was added to each well. On the third day, the drugs were added for test. The 96-well plate was taken out from the cell incubator to decant the culture medium, 40 μL of the substrate coelenterazine 400a (final concentration of 5 μM) was added to each well, and then 20 μL of different drugs were added sequentially from left to right to ensure that the final concentration of the drug decreased gradually from bottom to top, with two replicates per treatment. Finally, the prepared samples were loaded on machine for test. The machine readout value reflected the dissociation of G protein trimer, and thereby indicated the degree of activation of the G protein signaling pathway downstream of the 5-HTIA receptors.

[1] = system: restraint-induced depression-like behaviors; test: Tail suspension test after 5-hour restraint; type: in vivo, C57B6 male mice; settings: for Immobility time (seconds), tail suspension test: 5 hour restraint
Description: The experimental animals were C57B6 male mice, n=8 in each group. 5-hour restraint were used to develop depression-like behavioral representations of the mice, then the effects of the compounds on their “depression-like” behaviors were measured according to behavioral performance in tail suspension test and forced swimming test. The specific experimental procedures were as follows: Firstly, the mice were restrained using a mouse fixator for tail vein injection. During the restraint process, all movement abilities of the mice were restricted under the condition of introducing minimal pain to the mice. Compounds were administered intraperitoneally twice, before and after restraint, respectively. After compound administration, the mice returned to the cage to recover for 30 minutes. After 30 minutes recovery, the mice in different groups were subjected to tail suspension test or forced swimming test to measure their “depression-like” behaviors.
Tail suspension test: mouse tails were fixed a cantilever arm on an iron rack using adhesive tape, and the mouse was maintained in a suspension position for 6 minutes. The first 2 minutes were the adaptation period and no data collection was performed. Subsequently, the mouse's immobility behavior was recorded intermittently for the remaining 4 minutes. The duration of immobility was measured to assess the level of behavioral despair in the mice. Data statistics were performed using Student-t-test analysis, *p<0.05, ** p<0.01, *** p<0.001, **** p<0.0001.

dopamine D2 receptors [2] = target: T1, dopamine D2 receptors (Homo sapiens (Human), UniProt P14416); test: Affinity for dopamine D2 receptors, radioligand competition with [3H]-Methylspiperone; type: binding; settings: 293T membrane transiently expressing D2
Description: The affinity of the compounds of the present disclosure for the dopamine D2 receptors was determined by the method of radioligand competition experiment. In the first step, a cell membrane component containing specific dopamine D2 receptors was prepared. A 10 cm culture dish was used for transfection with 10 ng of the dopamine D2 receptors and 40 μL of polyethylenimine (PEI hereafter). After 48 hours, the 10 cm culture dish was taken out from the cell culture incubator and the cultured cells had expressed the dopamine D2 receptors. A vacuum pump was used to suck off the culture medium, 3 mL of lysis buffer was added to each culture dish, and the cells were placed in a 4° C. cold room for 10 minutes. After the cells were detached, the cells were transferred to a 15 mL centrifuge tube and centrifuged at 1500 rpm for 5 minutes at 4° C., and the supernatant was discarded. The cell pellet was transferred to a tissue homogenizer, and 3 mL of lysis buffer was added and fully ground until the cells were broken. Then, cell suspension was equally aliquoted into several EP tubes, centrifuged at 12000 rpm for 5 minutes at 4° C., and the supernatant was discarded. The precipitate was the cell membrane component containing the dopamine D2 receptors. […] First, a standard binding buffer was added to the cell membrane component containing the dopamine D2 receptors, and the cell membrane was disrupted and resuspended with an electric tissue homogenizer. 30 μL of membrane protein suspension was added to each well of a 96-well plate. Then, 30 μL of different drugs were added to the 96-well plate sequentially from bottom to top to ensure that the final drug concentrations were 10^−5 M, 10^−6 M, 10^−7 M, 10^−8 M, 10^−9 M, and 0 M, with two replicates per treatment. Next, 30 μL of [3H]-Methylspiperone was added to each well of the 96-well plate. The plate was incubated for 2 hours at room temperature in the dark. Detection was conducted. The machine readout value reflected the amount of [3H]-Methylspiperone bound on the membrane, and after further data processing, the affinity Ki values of different compounds for the dopamine D2 receptors were obtained.

5-HT2A receptor = 5-HT2A receptor (Homo sapiens (Human), UniProt P28223); test: Affinity for 5-HT2A receptors, radioligand competition with [3H]-ketanserin; type: binding; settings: 293T membrane transiently expressing 5-HT2A
Description: The affinity of the compounds of the present disclosure for the 5-HT2A receptors was determined by the method of radioligand competition experiment. In the first step, a cell membrane component containing specific 5-HT2A receptor was prepared. A 10 cm dish was used for transfection with 10 ng of the 5-HT2A receptor and 40 μL of PEI. After 48 hours, the 10 cm dish was taken out from the cell incubator and the cultured cells had expressed the 5-HT2A receptor. A vacuum pump was used to suck off the culture medium, 3 mL of lysis buffer was added to each culture dish, and the cells were placed in a 4° C. cold room for 10 minutes. After the cells were detached, the cells were transferred to a 15 mL centrifuge tube and centrifuged at 1500 rpm for 5 minutes at 4° C., and the supernatant was discarded. The cell pellet was transferred to a tissue homogenizer, and 3 mL of lysis buffer was added and fully ground until the cells were broken. Then, cell suspension was equally aliquoted into several EP tubes, centrifuged at 12000 rpm for 5 minutes at 4° C., and the supernatant was discarded. The precipitate was the cell membrane component containing the 5-HT2A receptor. […] First, a standard binding buffer was added to the cell membrane component containing the 5-HT2A receptor, and the cell membrane was disrupted and resuspended with an electric tissue homogenizer. 30 μL of membrane protein suspension was added to each well of a 96-well plate. Then, 30 μL of different drugs were added to the 96-well plate sequentially from bottom to top to ensure that the final drug concentrations were 10^−5 M, 10^−6 M, 10^−7 M, 10^−8 M, 10^−9 M, and 0 M, with two replicates per treatment. Next, 30 μL of [3H]-ketanserin was added to each well of the 96-well plate. The plate was incubated for 2 hours at room temperature in the dark. Detection was conducted. The machine readout value reflected the amount of [3H]-ketanserin bound on the membrane, and after further data processing, the affinity Ki values of different compounds for the 5-HT2A receptor were obtained.

dopamine D2 receptors [3] = target: T1, dopamine D2 receptors; test: Dopamine D2 receptor Gαi1 BRET (G protein trimer dissociation); type: cell-based; settings: D2 receptor, G protein pathway;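 also: transfected cells co-expressing D2 receptor, Gαi1-Rluc, Gβ3 and Gγ9-GFP, BRET with coelenterazine 400a at 5 µM read as G protein trimer dissociation, graded drug concentrations in duplicate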
Description: To examine the downstream G protein signaling pathway mediated by dopamine D2 receptors, on the first day, a 6 cm culture dish was used for transfection with 1 μg of dopamine D2 receptors, 1 μg of Gαi1 containing a C-terminal seaweed luciferase (Gαi1-Rluc), 1 μg of Gβ3, 1 μg of Gγ9 containing C-terminal green fluorescent protein (Gγ9-GFP), and 16 μL of PEI. At the same time, in order to examine the downstream β-arrestin2 signaling pathway mediated by dopamine D2 receptors, on the first day, a 6 cm culture dish was used for transfection with 500 μg of dopamine D2 receptors containing C-terminal seaweed luciferase (D2-Rluc), 500 μg of G protein-coupled receptor kinase 2 (GRK2), 2500 μg of β-arrestin2 containing N-terminal green fluorescent protein (GFP2-ARRB2) mixed with 14 μL of PEI. The next day, the confluent cells of a 6 cm culture dish were digested and reseeded into a 96-well plate with 100 μL of culture medium added to each well. On the third day, the drugs were added for test. The 96-well plate was taken out from the cell incubator to decant the culture medium, 40 μL of the substrate coelenterazine 400a (final concentration of 5 μM) was added to each well, and then 20 μL of different drugs were added sequentially from left to right to ensure that the final concentration of the drug decreased gradually from bottom to top, with two replicates per treatment. Finally, the prepared samples were loaded on machine for test. The machine readout value reflected the recruitment of β-arrestin2 to the membrane or the dissociation of G protein trimer. The former indicated the degree of activation of the β-arrestin2 signaling pathway downstream of the dopamine D2 receptors, and the latter indicated the degree of activation of the G protein signaling pathway downstream of the dopamine D2 receptors.

[4] = system: hyperlocomotion of the mice induced by MK801; test: Open field test, hyperlocomotion induced by MK801; type: in vivo, C57B6 male mice; settings: for Distance (cm) travelled in 45 minutes: 0-45 minute interval after MK-801; for Distance travelled (cm): 5-minute bin
Description: Experimental method: The experimental animals were C57B6 male mice, n=8 in each group. This model used C57B6 mice as experimental animals. Hyperlocomotion of the mice in open field was induced by acute injection of a NMDA antagonist MK801. and modeled to test the inhibitory effect of different compounds on hyperkinesia phenotype induced by MK801. All mouse behavior experiments were carried out during the light period, and the whole process was recorded by the camera and locomotive data were tracked and analyzed by behavioral tracking software. The compounds were administered intraperitoneally. Immediately after the injection, the mice entered the open field and their movement trajectories were recorded by the camera. After 30 minutes, the mice received 0.2 mg/kg of MK801 by intraperitoneal injection and returned to the open field immediately after administration and the movement trajectories were further recorded for 120 minutes. The accumulative travelled distance of the mice was counted in a 5-minute bin. Data statistics were performed using Student-t-test analysis, *p<0.05, ** p<0.01, *** p<0.001, **** p<0.0001.

T1 sequence (P14416 whole entry): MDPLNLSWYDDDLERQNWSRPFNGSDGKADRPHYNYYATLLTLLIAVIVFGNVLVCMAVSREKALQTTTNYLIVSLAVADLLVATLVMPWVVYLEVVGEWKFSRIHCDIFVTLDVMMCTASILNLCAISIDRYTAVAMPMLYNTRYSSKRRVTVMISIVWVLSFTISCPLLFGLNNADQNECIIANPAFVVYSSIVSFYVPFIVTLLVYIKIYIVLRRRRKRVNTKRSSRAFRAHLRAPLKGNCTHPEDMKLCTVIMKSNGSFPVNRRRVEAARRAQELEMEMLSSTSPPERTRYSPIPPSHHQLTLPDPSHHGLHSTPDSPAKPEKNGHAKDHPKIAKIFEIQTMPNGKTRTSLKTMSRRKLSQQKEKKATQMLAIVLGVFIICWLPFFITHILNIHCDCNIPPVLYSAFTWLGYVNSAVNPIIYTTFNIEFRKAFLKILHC
5-HT1A receptor, sequence (P08908 whole entry): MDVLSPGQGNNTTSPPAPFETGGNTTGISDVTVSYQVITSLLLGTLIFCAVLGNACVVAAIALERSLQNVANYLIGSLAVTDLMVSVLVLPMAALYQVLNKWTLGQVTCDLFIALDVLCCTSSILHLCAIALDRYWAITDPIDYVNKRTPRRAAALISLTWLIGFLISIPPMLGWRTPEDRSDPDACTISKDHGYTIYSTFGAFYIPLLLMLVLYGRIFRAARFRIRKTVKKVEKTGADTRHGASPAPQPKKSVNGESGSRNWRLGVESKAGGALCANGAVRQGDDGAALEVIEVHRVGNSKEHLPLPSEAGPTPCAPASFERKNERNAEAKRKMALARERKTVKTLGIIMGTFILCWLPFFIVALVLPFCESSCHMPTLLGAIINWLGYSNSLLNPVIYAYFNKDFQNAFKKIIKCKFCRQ
5-HT2A receptor, sequence (P28223 whole entry): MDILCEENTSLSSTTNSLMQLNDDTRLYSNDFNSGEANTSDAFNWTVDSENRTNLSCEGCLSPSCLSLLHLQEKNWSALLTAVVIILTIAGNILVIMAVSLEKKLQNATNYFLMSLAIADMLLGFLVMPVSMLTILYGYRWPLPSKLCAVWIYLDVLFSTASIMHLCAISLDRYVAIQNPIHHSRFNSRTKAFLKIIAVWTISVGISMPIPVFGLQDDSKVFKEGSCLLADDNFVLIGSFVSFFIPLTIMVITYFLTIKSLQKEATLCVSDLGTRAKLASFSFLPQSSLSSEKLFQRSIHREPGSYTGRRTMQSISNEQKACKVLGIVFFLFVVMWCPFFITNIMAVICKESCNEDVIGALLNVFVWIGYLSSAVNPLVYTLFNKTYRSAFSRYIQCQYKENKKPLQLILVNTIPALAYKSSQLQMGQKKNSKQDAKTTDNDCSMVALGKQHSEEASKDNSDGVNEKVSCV

Compound: CN(C)C(=O)N[C@H]1CC[C@H](CCN2CCN3c4cccc5scc(c45)CC3C2)CC1 (single isomer, unassigned; (-)) [(−)-I-27]
- Gαi1 BRET (Emax %) (5-HT1A receptor): (76%)
- EC50 (5-HT1A receptor; read-out: Gαi1 BRET EC50): 0.166 µM
- Inhibition of restraint-induced depression-like behaviors ([1]; 0.1 mg/kg and 0.025 mg/kg i.p., tail suspension and forced swimming tests): significantly inhibit
- Immobility time (seconds), tail suspension test ([1]; (−)-I-27 0.025 mg/kg i.p.): 87.04 ± 7.69 s
- Immobility time (seconds), tail suspension test ([1]; (−)-I-27 0.1 mg/kg i.p.): 54.13 ± 6.99 s
- Ki (dopamine D2 receptors [2]): 0.12 µM
- Ki (5-HT2A receptor): 2.29 µM
- Gαi1 BRET (Emax %) (dopamine D2 receptors [3]): (72.04%)
- EC50 (dopamine D2 receptors [3]; read-out: Gαi1 BRET EC50): 0.00376 µM
- Inhibition of MK801-induced hyperlocomotion ([4]; 0.4/0.2/0.1 mg/kg intraperitoneally, MK801 0.2 mg/kg): significantly inhibit hyperlocomotion
- Distance (cm) travelled in 45 minutes ([4]; (−)-I-27 0.1 mg/kg i.p. + MK801 0.2 mg/kg): 6882.3 cm
- Distance travelled (cm) ([4]; (−)-I-27 0.1 mg/kg i.p. + MK801 0.2 mg/kg, 5 minutes after MK801): 420.96 ± 66.32 cm
- Distance travelled (cm) ([4]; (−)-I-27 0.1 mg/kg i.p. + MK801 0.2 mg/kg, 10 minutes after MK801): 405.21 ± 55.18 cm
- Distance travelled (cm) ([4]; (−)-I-27 0.1 mg/kg i.p. + MK801 0.2 mg/kg, 15 minutes after MK801): 482.21 ± 74.21 cm
- Distance travelled (cm) ([4]; (−)-I-27 0.1 mg/kg i.p. + MK801 0.2 mg/kg, 20 minutes after MK801): 708.05 ± 61.74 cm
- Distance travelled (cm) ([4]; (−)-I-27 0.1 mg/kg i.p. + MK801 0.2 mg/kg, 25 minutes after MK801): 895.54 ± 92.18 cm
- Distance travelled (cm) ([4]; (−)-I-27 0.1 mg/kg i.p. + MK801 0.2 mg/kg, 30 minutes after MK801): 1035.67 ± 122.77 cm
- Distance travelled (cm) ([4]; (−)-I-27 0.1 mg/kg i.p. + MK801 0.2 mg/kg, 35 minutes after MK801): 1075.2 ± 123.55 cm
- Distance travelled (cm) ([4]; (−)-I-27 0.1 mg/kg i.p. + MK801 0.2 mg/kg, 45 minutes after MK801): 942.97 ± 82.87 cm
- Distance travelled (cm) ([4]; (−)-I-27 0.1 mg/kg i.p. + MK801 0.2 mg/kg, 50 minutes after MK801): 985.86 ± 96.6 cm
- Distance travelled (cm) ([4]; (−)-I-27 0.1 mg/kg i.p. + MK801 0.2 mg/kg, 55 minutes after MK801): 925.44 ± 118.24 cm
- Distance travelled (cm) ([4]; (−)-I-27 0.1 mg/kg i.p. + MK801 0.2 mg/kg, 60 minutes after MK801): 937.96 ± 121.52 cm
- Distance travelled (cm) ([4]; (−)-I-27 0.1 mg/kg i.p. + MK801 0.2 mg/kg, 65 minutes after MK801): 931.08 ± 108.91 cm
- Distance travelled (cm) ([4]; (−)-I-27 0.1 mg/kg i.p. + MK801 0.2 mg/kg, 70 minutes after MK801): 839.2 ± 104.29 cm
- Distance travelled (cm) ([4]; (−)-I-27 0.1 mg/kg i.p. + MK801 0.2 mg/kg, 75 minutes after MK801): 773.65 ± 117.99 cm
- Distance travelled (cm) ([4]; (−)-I-27 0.1 mg/kg i.p. + MK801 0.2 mg/kg, 80 minutes after MK801): 691.57 ± 121.79 cm
- Distance travelled (cm) ([4]; (−)-I-27 0.1 mg/kg i.p. + MK801 0.2 mg/kg, 85 minutes after MK801): 682.97 ± 115.06 cm
- Distance travelled (cm) ([4]; (−)-I-27 0.1 mg/kg i.p. + MK801 0.2 mg/kg, 90 minutes after MK801): 611.63 ± 112.71 cm
- Distance travelled (cm) ([4]; (−)-I-27 0.1 mg/kg i.p. + MK801 0.2 mg/kg, 95 minutes after MK801): 432.95 ± 85.66 cm
- Distance travelled (cm) ([4]; (−)-I-27 0.1 mg/kg i.p. + MK801 0.2 mg/kg, 100 minutes after MK801): 405.27 ± 69.97 cm
- Distance travelled (cm) ([4]; (−)-I-27 0.1 mg/kg i.p. + MK801 0.2 mg/kg, 105 minutes after MK801): 391.87 ± 78.94 cm
- Distance travelled (cm) ([4]; (−)-I-27 0.1 mg/kg i.p. + MK801 0.2 mg/kg, 110 minutes after MK801): 351.08 ± 112.22 cm
- Distance travelled (cm) ([4]; (−)-I-27 0.1 mg/kg i.p. + MK801 0.2 mg/kg, 115 minutes after MK801): 310.3 ± 83.61 cm
- Distance travelled (cm) ([4]; (−)-I-27 0.1 mg/kg i.p. + MK801 0.2 mg/kg, 120 minutes after MK801): 339.28 ± 95.35 cm
- Distance travelled (cm) ([4]; (−)-I-27 0.1 mg/kg i.p., 0 minutes, before MK801): 446.62 ± 49.69 cm
- Distance travelled (cm) ([4]; (−)-I-27 0.1 mg/kg i.p., −5 minutes, before MK801): 473.13 ± 38.54 cm
- Distance travelled (cm) ([4]; (−)-I-27 0.1 mg/kg i.p., −10 minutes, before MK801): 479.62 ± 34 cm
- Distance travelled (cm) ([4]; (−)-I-27 0.1 mg/kg i.p., −15 minutes, before MK801): 522.39 ± 41.17 cm
- Distance travelled (cm) ([4]; (−)-I-27 0.1 mg/kg i.p., −20 minutes, before MK801): 606.78 ± 43.01 cm
- Distance travelled (cm) ([4]; (−)-I-27 0.1 mg/kg i.p., −25 minutes, before MK801): 827.15 ± 76.34 cm
- Distance (cm) travelled in 45 minutes ([4]; (−)-I-27 0.2 mg/kg i.p. + MK801 0.2 mg/kg): 5849.12 cm
- Distance travelled (cm) ([4]; (−)-I-27 0.2 mg/kg i.p. + MK801 0.2 mg/kg, 5 minutes after MK801): 527.23 ± 55.9 cm
- Distance travelled (cm) ([4]; (−)-I-27 0.2 mg/kg i.p. + MK801 0.2 mg/kg, 10 minutes after MK801): 353.73 ± 61.92 cm
- Distance travelled (cm) ([4]; (−)-I-27 0.2 mg/kg i.p. + MK801 0.2 mg/kg, 15 minutes after MK801): 415.6 ± 122.18 cm
- Distance travelled (cm) ([4]; (−)-I-27 0.2 mg/kg i.p. + MK801 0.2 mg/kg, 20 minutes after MK801): 555.77 ± 141.94 cm
- Distance travelled (cm) ([4]; (−)-I-27 0.2 mg/kg i.p. + MK801 0.2 mg/kg, 25 minutes after MK801): 775.2 ± 174.1 cm
- Distance travelled (cm) ([4]; (−)-I-27 0.2 mg/kg i.p. + MK801 0.2 mg/kg, 30 minutes after MK801): 815.56 ± 168.41 cm
- Distance travelled (cm) ([4]; (−)-I-27 0.2 mg/kg i.p. + MK801 0.2 mg/kg, 35 minutes after MK801): 844.11 ± 141.81 cm
- Distance travelled (cm) ([4]; (−)-I-27 0.2 mg/kg i.p. + MK801 0.2 mg/kg, 40 minutes after MK801): 771.62 ± 111.37| cm
- Distance travelled (cm) ([4]; (−)-I-27 0.2 mg/kg i.p. + MK801 0.2 mg/kg, 45 minutes after MK801): 790.3 ± 145.96 cm
- Distance travelled (cm) ([4]; (−)-I-27 0.2 mg/kg i.p. + MK801 0.2 mg/kg, 50 minutes after MK801): 741.75 ± 130.61 cm
